Drawing on US20070185161A1, “Bicyclic substituted indole-derivative steroid hormone nuclear receptor modulators” (priority 2004, published 2007), this text covers Ki for 4 compounds.

This test has as its target T1, glucocorticoid receptor (A549 human lung epithelial cell extract) (Homo sapiens, UniProt P04150).
T1 construct: host or cells: A549 human lung epithelial cells
T1 sequence (P04150 1-777): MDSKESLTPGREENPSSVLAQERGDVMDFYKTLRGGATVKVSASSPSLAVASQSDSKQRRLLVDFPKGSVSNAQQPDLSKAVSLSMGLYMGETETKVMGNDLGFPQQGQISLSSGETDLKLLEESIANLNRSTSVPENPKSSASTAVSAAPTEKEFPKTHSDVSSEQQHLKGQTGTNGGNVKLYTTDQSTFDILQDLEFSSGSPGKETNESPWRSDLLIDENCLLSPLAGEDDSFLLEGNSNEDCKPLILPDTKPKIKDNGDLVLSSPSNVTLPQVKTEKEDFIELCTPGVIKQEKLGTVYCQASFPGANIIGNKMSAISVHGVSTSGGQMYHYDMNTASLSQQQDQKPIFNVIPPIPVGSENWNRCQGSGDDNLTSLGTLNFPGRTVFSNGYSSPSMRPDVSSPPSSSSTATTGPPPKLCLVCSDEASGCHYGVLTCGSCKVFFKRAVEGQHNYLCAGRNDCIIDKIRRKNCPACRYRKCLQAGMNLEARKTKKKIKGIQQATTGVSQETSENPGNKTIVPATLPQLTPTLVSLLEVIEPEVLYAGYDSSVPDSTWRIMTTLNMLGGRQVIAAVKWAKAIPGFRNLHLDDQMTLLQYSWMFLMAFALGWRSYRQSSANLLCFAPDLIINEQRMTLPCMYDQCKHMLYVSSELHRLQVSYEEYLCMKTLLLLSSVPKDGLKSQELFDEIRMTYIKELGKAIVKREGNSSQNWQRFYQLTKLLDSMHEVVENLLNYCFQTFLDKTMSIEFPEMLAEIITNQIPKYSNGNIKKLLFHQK
Description: Glucocorticoid Receptor Binding Assay (Method 1). As to conditions: [3H]-dexamethasone, racemic mixture unless otherwise indicated, read-out: GR Ki (nM) Method 1. As for the experimental part: A549 human lung epithelial cells (ATCC) are grown at a scale where gram quantity cell pellets are obtained. Harvested cell pellets are washed twice in cold phosphate buffered saline, centrifuged, and resuspended in cold assay binding buffer. The assay binding buffer consists of 10% glycerol, 50 mM Tris-HCl (pH7.2), 75 mM sodium chloride, 1.5 mM magnesium chloride, 1.5 mM EDTA, and 10 mM sodium molybdate. Cell suspensions were lysed via sonication, centrifuged, and the “extract” supernatant is snap frozen and stored at −80 C until needed.
GR binding assays are performed in a final volume of 140 ul containing 50-200 ug of A549 cell extract and 1.86 nM [^3H]-dexamethasone (Amersham) plus varying concentrations of test compound or vehicle. Briefly, assays are prepared at RT in 96-well Fisher 3356 plates, each well containing 100 ul of A549 cell extract, 20 ul of [^3H]-dexamethasone, and 20 ul of test compound/vehicle. Incubations are carried out at 4 degrees Celsius for 16 hours. After incubation, 70 ul of 3× dextran-coated charcoal solution is added to each reaction, mixed, and incubated for 8 minutes at RT. 3×-dextran-coated charcoal solution consists of 250 ml assay binding buffer, 3.75 g Norit A charcoal (Sigma), and 1.25 g dextran T-70 (Amersham). Charcoal/unbound radioligand complexes are removed by centrifugation of the plate and 140 ul of supernatant from each well is transferred to another 96 well Optiplate (Packard Instruments). 200 ul of Microscint-20 scinillant (Packard Instruments) is added to each well and amount of receptor bound radioligand is determined using Packard Instruments TopCount instrument.
IC50 values, defined as the concentration of test compound required to decrease [^3H]-dexamethasone binding by 50%, are then determined. Ki values for each respective test compound can then be calculated by application of the Cheng-Prusoff equation as described in Cheng et al., Relationship Between The Inhibition Constant (Ki) and The Concentration of Inhibitor Which Causes 50% Inhibition (IC50) of an Enzymatic Reaction, Biochem. Pharmacol., 22: 3099-31088; (1973).

As usually defined, the Ki is a measure of affinity in units of concentration, obtained from inhibition or displacement.

For `CC1(c2c[nH]c3c(NS(C)(=O)=O)cccc23)CCOc2ccccc21` (stereo not shown) [Example 32, N-[3-(4-Methyl-chroman-4-yl)-1H-indol-7-yl]-methanesulfonamide], the Ki is not above 500 nM.
Turning to `CC1(c2c[nH]c3c(NS(C)(=O)=O)cccc23)CCOc2ccc(F)cc21` (stereo not shown) [Example 33, N-[3-(6-Fluoro-4-methyl-chroman-4-yl)-1H-indol-7-yl]-methanesulfonamide], the Ki is not above 500 nM.
Next, `CC1(c2c[nH]c3c(NS(C)(=O)=O)cccc23)CCSc2ccccc21` (stereo not shown) [Example 37, N-[3-(4-Methyl-thiochroman-4-yl)-1-indol-7-yl]-methanesulfonamide]: not above 500 nM.
With `CC1(c2c[nH]c3c(NS(C)(=O)=O)cccc23)CCCCc2ccccc21` (stereo not shown) [Example 38, N-[3-(5-Methyl-6,7,8,9-tetrahydro-5H-benzocyclohepten-5-yl)-1H-indol-7-yl]-methanesulfonamide] the figure was not above 500 nM.
